The source of these data is publication PMC10606834, “Is the Neuropeptide PEN a Ligand of GPR83?” (International Journal of Molecular Sciences, 2023).

The subject of experiment [1] is GPR83 with chimeric Gα16/i3 protein (CHO cells). As to conditions: CHO cells transfected with GPR83 and chimeric Gα16/i3 protein; ref [10]; cited from earlier work. An excerpt:
In the present study, evidence for a molecular interaction of the neuropeptide PEN with the cell surface receptor GPR83 could not be found.

In experiment [2] the test system is ERK1/2 phosphorylation in HEK293 cells overexpressing GPR83 or GPR83del. Nature of the experiment: ERK1/2 phosphorylation (immunoblot), GPR83 cells. It counts as cell-based, human. An excerpt: (§1) Apart from G protein-mediated second messenger signaling via Ca^2+ and cAMP, GPCR stimulation may also lead to activation of β-arrestin and phosphorylation of extracellular signal-regulated kinases 1/2 (ERK1/2). Immunoblot analysis was employed to investigate ligand-dependent phosphorylation of ERK1/2 in HEK293 cells overexpressing GPR83 or the deletion variant GPR83del as well as in wild-type HEK293 cells.
(§2) Figure 4 Ligand-dependent phosphorylation of ERK1/2 and β-arrestin (TANGO) assay. (A) Immunoblot detection of phosphorylated (upper blot) and total (lower blot) ERK1/2 in lysates of HEK293 wild-type cells and in HEK293 cells overexpressing GPR83 or GPR83del. (B) Quantification (mean ± SD of n = 2 independent experiments) of chemiluminescent readout of the immunoblots shown in (A). (C) TANGO assay for ligand-induced β-arrestin activity in HTLA cells overexpressing GPR83 (relative light units, RLU). (D) TANGO assay for ligand-induced β-arrestin activity in HTLA cells overexpressing bradykinin receptor BDKBR2.
(§3) 4.7. ERK1/2 Phosphorylation Assay
Effects of GPCR ligands on MAPK signaling were assessed with Western blot analysis of lysates from stimulated cells. The ERK1/2 activation assay was performed as described before. Briefly, 50,000 cells per well were seeded onto adherent 6-well plates and cultured until cells were 80% confluent. After incubation with ligands (10 µM PEN #1 and 100 ng/mL EGF or 200 nM PMA in 0.1% FCS/DMEM) for 15 min, cells were lysed using 200 µL/well cell lysis buffer (100 mM Tris-HCl pH 8.8, 1% SDS) and protease inhibitors (cOmplete, Roche, Basel, Switzerland) on ice for one hour. Immunolabeling was realized using the rabbit monoclonal primary antibody anti-phospho-ERK1/2 Thr^202/Tyr^204 (#4370, Cell Signaling Technologies, Danvers, MA, USA, 1:2000), or anti-total ERK1/2 (#05-1152; Millipore, Burlington, VT, USA; 1:2000), respectively. Blots were analyzed using densitometric quantification using Image Lab Software v4.1 (Bio-Rad).

Experiment [3] deals with ERK1/2 phosphorylation in wild-type HEK293 cells. Briefly: ERK1/2 phosphorylation (immunoblot), wild-type cells. As to conditions: 10 µM PEN #1, 15 min, n = 2. It counts as cell-based, human.
Excerpt: as §1, §2, §3
Effects of GPCR ligands on MAPK signaling were assessed with Western blot analysis of lysates from stimulated cells. The ERK1/2 activation assay was performed as described before. […] Blots were analyzed using densitometric quantification using Image Lab Software v4.1 (Bio-Rad).
On the technique in general: Immunoblotting shows a protein as a band on a membrane.

The subject of experiment [4] is GPR83 and deletion variant GPR83del (HEK293 clones; wild-type HEK293 as comparison). Nature of the experiment: Intracellular calcium mobilization, HEK293 cells. It counts as cell-based, human. On the procedure: As activation of many GPCRs is coupled to calcium mobilization from intracellular stores, GPR83 was probed for ligand-dependent calcium release. Wild-type HEK293 cells and HEK293 clones overexpressing either full-length GPR83 or the N-terminal deletion variant GPR83del were exposed to buffer or one of two independent synthesis batches (PEN #1 and PEN #2) of the neuropeptide PEN, while calcium indicator fluorescence was recorded. […] Calcium release was also tested in a second cell line, osteosarcoma U2OS cells, using various stably expressing clones. […] Therefore, HEK293 cells transfected with Gα16 were employed to investigate a potential GPR83-dependent calcium mobilization with PEN. […] A number of GPCRs show ligand-independent basal calcium activity. However, in an experiment comparing basal calcium levels in wild-type HEK293 cells and in HEK293 clones overexpressing four different variants of GPR83, they were not found to be different (Figure 2D).
Figure 2 Investigation of ligand-dependent and ligand-independent intracellular calcium mobilization. (A) Wild-type HEK293 cells and HEK293 cell clones overexpressing either GPR83 or the deletion variant GPR83del were incubated with either buffer or the specified ligand (10 µM PEN or co mix = 100 µM carbachol, 100 µM ATP, 40 µM dimaprit, or 50 µM ionomycin). (B) Calcium indicator fluorescence intensity traces over 60 s of various U2OS cell clones overexpressing untagged or HA-tagged GPR83 or the deletion variant GPR83del before and after the addition of buffer or ligand (co mix as in (A) or 50 µM ionomycin or 10 µM PEN). […]
Cells were seeded at 50,000 cells/well in a poly-D-lysine coated 96-well black well/clear bottom plate (BD Falcon, Franklin Lakes, NJ, USA) and cultured overnight. […] Fluorescence was recorded with the fluorescence imaging plate reader CellLux (Perkin Elmer, Waltham, MA, USA) simultaneously in all wells at an excitation wavelength of 488 nm and emission wavelength of 510 nm in 1.5 s intervals over a period of 4 min. Fluorescence data were generated in duplicate, and experiments were repeated at least two times.
Background: A change in cytosolic calcium serves as a functional read-out for many receptors and channels.

Entries after “also recorded” stand apart in the source; their conditions may differ.

On to “AADHDVGSELPPEGVLGALLRV [PEN, batch #1 synthesized, batch #2 purchased from Phoenix Pharmaceuticals]”, for which the “intracellular Ca2+ mobilization” value in experiment [1] is given as “PEN-induced intracellular Ca^2+ mobilization”. Also, in experiment [2] (10 µM PEN #1, 100 ng/mL EGF or 200 nM PMA, 15 min, HEK293 overexpressing GPR83 or GPR83del as well as wild-type HEK293, n = 2 independent experiments), the “phosphorylation of ERK1/2” value was “substantially induced phosphorylation of ERK1/2”. In addition, the “phosphorylation of ERK1/2, GPR83 or GPR83del cells versus wild-type” value in experiment [2] (10 µM PEN #1, 15 min, n = 2) was “equally strong ERK1/2 phosphorylation in wild-type HEK293 cells as well as in HEK293 cells overexpressing GPR83 or GPR83del”. Also, in experiment [3], the “phosphorylation of ERK1/2, wild-type HEK293 versus GPR83 or GPR83del cells” value was “equally strong ERK1/2 phosphorylation in wild-type HEK293 cells as well as in HEK293 cells overexpressing GPR83 or GPR83del; also recorded: also demonstrated a similar phosphorylation after incubation with PEN”. The calcium signal result in experiment [4] (10 µM PEN, co mix = 100 µM carbachol, 100 µM ATP, 40 µM dimaprit, 50 µM ionomycin, HEK293 wild-type, GPR83 or GPR83del clones, Fluo4-AM fluorescence, compared with buffer, duplicate, repeated at least two times) is on record as “PEN did not”. Besides, the “Ca2+ signal above background” value in experiment [4] (two synthesis batches of PEN, confirmed in HEK293 and U2OS cells, full-length or truncated GPR83 (Figure 2A–C)) was “none of two synthesis batches of PEN from different sources was found to yield a signal above background”.
